In article PMC4610166, “Structural and Functional Characterization of Recombinant Isoforms of the Lentil Lipid Transfer Protein” (Acta Naturae, 2015):

Assays:
Assay in all cases: TNS fluorescence displacement (ex […] nm, em […] nm)
Format in all cases: binding
Lc-LTP2 = molecular target: T1, Lc-LTP2 (Lens culinaris, UniProt A0AT29); conditions: protein 2.5 uM; 3 uM TNS, 65 uM stearic acid; 175 mM D-mannitol, 0.5 mM K2SO4, 0.5 mM CaCl2, 5 mM MES pH 7.0, 25 C; competition with TNS
T1 sequence (A0AT29 26-118): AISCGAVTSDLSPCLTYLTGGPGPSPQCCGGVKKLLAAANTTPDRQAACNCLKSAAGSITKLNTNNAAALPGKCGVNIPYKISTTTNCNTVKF

Lc-LTP3 = molecular target: T2, Lc-LTP3 (Lens culinaris, UniProt A0AT30); conditions: protein 2.5 uM; 3 uM TNS, 65 uM stearic acid; 175 mM D-mannitol, 0.5 mM K2SO4, 0.5 mM CaCl2, 5 mM MES pH 7.0, 25 C; competition with TNS
T2 construct: mature protein, 93 residues; expressed in E. coli BL21(DE3) as His8-TrxL fusion, tag cut off with CNBr; from soluble fraction; four disulfides; monomer and dimer on SDS-PAGE

Lc-LTP1 = molecular target: T3, Lc-LTP1 (Lens culinaris, UniProt A0AT28); conditions: refolded protein 2.5 uM; 3 uM TNS, 65 uM stearic acid; 175 mM D-mannitol, 0.5 mM K2SO4, 0.5 mM CaCl2, 5 mM MES pH 7.0, 25 C; competition with TNS
T3 construct: mature protein, 93 residues; expressed in E. coli BL21(DE3) as His8-TrxL fusion, tag cut off with CNBr; four disulfides; monomer and dimer on SDS-PAGE
T3 sequence (A0AT28 26-118): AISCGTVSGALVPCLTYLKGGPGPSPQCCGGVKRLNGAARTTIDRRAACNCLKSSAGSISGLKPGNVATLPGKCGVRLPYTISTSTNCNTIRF

T2 sequence (A0AT30 26-118): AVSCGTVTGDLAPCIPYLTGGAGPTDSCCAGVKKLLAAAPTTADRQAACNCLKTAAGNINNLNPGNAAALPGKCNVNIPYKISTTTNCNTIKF

CCCCCCCCCCCCCCCCCC(=O)O [stearic acid]
% fluorescence intensity of the protein-TNS complex (Lc-LTP2): all three isoforms possess the ability to bind fatty acids | % fluorescence intensity of the protein-TNS complex (Lc-LTP3): all three isoforms possess the ability to bind fatty acids | % fluorescence intensity of the protein-TNS complex (Lc-LTP1): all three isoforms possess the ability to bind fatty acids
